# Measurements: patent US8088814B2, “Methods and compositions for the treatment of psychiatric disorders” (priority 2001, dated 2012)
# Read-outs that look alike come from different tables or passages of the source.
# Tests used:
# schizophrenic patients = tested on: schizophrenic patients
# Method: The statistics were performed according to the criterion of “last observation carried forward” (LOCF), i.e., the last PANSS scores of the patients who dropped out before the end of the study were carried forward to all subsequent observation days. For the comparison of the main efficacy parameter, the mean change in the PANSS between the two treatment groups, t-tests for independent samples were employed. […] For all other comparisons, two-tailed t-tests were used.
compound,measurement,setting,value
Cc1nc2n(c(=O)c1CCN1CCC(c3noc4cc(F)ccc34)CC1)CCCC2O (stereo not drawn) [9-OH-risperidone],differences in the plasma levels between risperidone-celecoxib and risperidone-placebo treatment,"human, in vivo",without statistical significance
Cc1ccc(-c2cc(C(F)(F)F)nn2-c2ccc(S(N)(=O)=O)cc2)cc1 [celecoxib],treatment of depressive states,schizophrenic patients; add-on celecoxib therapy in schizophrenic patients,useful
same,"PANSS items lack of contact, emotional isolation, passive-apathic isolation, social withdrawal, depression, motor retardation","schizophrenic patients; detailed item analysis, good celecoxib-responders vs placebo group, add-on to risperidone",therapeutic effects
same,factor analysis: items subsumed under the label agitation,"schizophrenic patients; response to celecoxib but not to placebo, add-on to risperidone",good therapeutic response
risperidone [placebo and risperidone],differences in the plasma levels between risperidone-celecoxib and risperidone-placebo treatment,"plasma, during the study (FIG. 4)",without statistical significance
same,PANSS global score,schizophrenic patients; at the start of the study,37.2±7.1
same,PANSS negative score,schizophrenic patients; at the start of the study,21.1±5.5
same,PANSS total score,schizophrenic patients; at the start of the study,75.4±12.9
same,PANSS positive score,"schizophrenic patients; week 0 (start of the study), mean ± SD, 25 patients per group",17.2 ± 4.6
same,PANSS positive score,"schizophrenic patients; week 0 (start of the study), mean ± SD, 25 patients per group, listed as risperidone-placebo",17.2±4.6
same,PANSS positive score,"schizophrenic patients; week 1, LOCF",16.2 ± 4.6
same,PANSS positive score,"schizophrenic patients; week 2, LOCF",15 ± 4.5
same,PANSS positive score,"schizophrenic patients; week 3, LOCF",14.5 ± 4.6
same,PANSS positive score,"schizophrenic patients; week 4, LOCF",14.2 ± 4.4
same,PANSS positive score,"schizophrenic patients; week 5, LOCF",13.3 ± 4.4
